# Measured values reported in PMC4764322, “An Unusual Member of the Papain Superfamily: Mapping the Catalytic Cleft of the Marasmius oreades agglutinin (MOA) with a Caspase Inhibitor” (PLoS ONE, 2016).
# Residues, ends and D or L forms follow the SMILES beside them. *: point of attachment. Cbz = O=C(OCc1ccccc1)*; CH2F = FC*
# Columns and labels:
# [1] = biological target: T1, Marasmius oreades agglutinin (MOA) (Marasmius oreades, UniProt Q8X123); assay: X-ray crystal structure (co-crystal, […]-1.[…] Å); assay type: binding; conditions: calcium, imidazole pH 8.0
# T1 construct: wild-type full-length 293 aa cDNA (MOApT7-LO), E. coli BL21(DE3), no tag mentioned; homodimer; model residues 2-293, Met1 probably cleaved
# [2] = biological target: the molecule itself; assay: crystal structure; MOA 5 mg/ml mixed with Galα1,3(Fucα1,2)Gal trisaccharide (1:20) and Z-VAD-fmk (1:3, 1:20 or 1:30 MOA:inhibitor); 0.1 M imidazole pH 8.0, 10-16% PEG 8000, 0.2 M calcium acetate, with or without 5% DMSO; space group P6(3)22; three data sets (ZVAD-direct, ZVAD-inverted, ZVAD-dual)
molecule,measurement,setting,value
"C[C@@H]1O[C@@H](O[C@H]2C(O)O[C@H](CO)[C@H](O)[C@@H]2O[C@H]2O[C@H](CO)[C@H](O)[C@H](O)[C@H]2O)[C@@H](O)[C@H](O)[C@@H]1O (stereo partly drawn) [Galα1,3(Fucα1,2)Gal trisaccharide]","X-ray crystal structure (co-crystal, 1.6-1.7 Å)","[1]; three lectin-domain sugar sites (α, β, γ), 1:20 MOA:sugar",The three sugar binding sites of MOA show a different preference for the anomeric form
CC(C)[C@H](NC(=O)OCc1ccccc1)C(=O)N[C@@H](C)C(=O)N[C@@H](CC(=O)O)C(=O)CF [Z-VAD-fmk] (Cbz-Val-Ala-Asp-CH2F),"X-ray crystal structure (co-crystal, 1.6-1.7 Å)","[1]; covalent, thioether with catalytic Cys215, direct and inverted orientations",the inhibitor molecule binds to the active site of MOA forming a thioether
"Marasmius oreades agglutinin (MOA), wild type (enzyme, Marasmius oreades agglutinin, wild-type cDNA in vector MOApT7-LO; 293 amino acids; Homodimer; one protomer in the asymmetric unit, the dimer arises by crystallographic symmetry; source: E. coli BL21 (DE3), purified (D-Gal-sepharose, cation exchange, size exclusion)) MSLRRGIYHIENAGVPSAIDLKDGSSSDGTPIVGWQFTPDTINWHQLWLAEPIPNVADTFTLCNLFSGTYMDLYNGSSEAGTAVNGWQGTAFTTNPHQLWTIKKSSDGTSYKIQNYGSKTFVDLVNGDSSDGAKIAGWTGTWDEGNPHQKWYFNRMSVSSAEAQAAIARNPHIHGTYRGYILDGEYLVLPNATFTQIWKDSGLPGSKWREQIYDCDDFAIAMKAAVGKWGADSWKANGFAIFCGVMLGVNKAGDAAHAYNFTLTKDHADIVFFEPQNGGYLNDIGYDSYMAFY",binding result,[2],binds
